Molecular target: T1, calcium channel (3H-nitrendipine binding, heart membranes) (Oryctolagus cuniculus, UniProt P15381)
T1 construct: from tissue; host or cells: rabbit heart membrane preparation
Assay: Assay for inhibition of nitrendipine binding (calcium channel antagonist activity)
Conditions: 3H-nitrendipine 0.05-0.50 nM, rabbit heart membranes, 90 minutes at 4° C.
Procedure: Female, New Zealand white rabbits (1-2 kg) are sacrificed by cervical dislocation, and the heart is immediately removed, cleaned and chopped into small pieces. The tissue is homogenized in 5×times volume of 0.05M Hepes buffer, pH 7.4. The homogenate is centrifuged at 4000 g for 10 minutes, and the supernatant is re-centrifuged at 42,000×g for 90 minutes. The resulting membrane pellet is re-suspended (0.7 ml/g weight) in 0.05M Hepes, pH 7.4 and stored at […] until used. Each tube of the binding assay contains ^3H-nitrendipine (0.05-0.50 nM), buffer, membranes (0.10 ml), and test compound in a total volume of 1.0 ml. After 90 minutes at 4° C., the bound nitrendipine is separated from the unbound by filtration on Whatman GF/C filters. After rinsing, the filters are dried and counted in a liquid scintillation counter.
Non-specific binding of ^3H-nitrendipine (that amount bound in the presence of excess unlabelled nitrendipine) is subtracted from the total bound to obtain specifically bound radiolabeled nitrendipine. The amount of specifically bound nitrendipine in the presence of a test compound is compared to that amount bound in the absence of a compound. A percent displacement (or inhibition) can then be calculated.

T1 sequence (P15381 whole entry, other chains not shown): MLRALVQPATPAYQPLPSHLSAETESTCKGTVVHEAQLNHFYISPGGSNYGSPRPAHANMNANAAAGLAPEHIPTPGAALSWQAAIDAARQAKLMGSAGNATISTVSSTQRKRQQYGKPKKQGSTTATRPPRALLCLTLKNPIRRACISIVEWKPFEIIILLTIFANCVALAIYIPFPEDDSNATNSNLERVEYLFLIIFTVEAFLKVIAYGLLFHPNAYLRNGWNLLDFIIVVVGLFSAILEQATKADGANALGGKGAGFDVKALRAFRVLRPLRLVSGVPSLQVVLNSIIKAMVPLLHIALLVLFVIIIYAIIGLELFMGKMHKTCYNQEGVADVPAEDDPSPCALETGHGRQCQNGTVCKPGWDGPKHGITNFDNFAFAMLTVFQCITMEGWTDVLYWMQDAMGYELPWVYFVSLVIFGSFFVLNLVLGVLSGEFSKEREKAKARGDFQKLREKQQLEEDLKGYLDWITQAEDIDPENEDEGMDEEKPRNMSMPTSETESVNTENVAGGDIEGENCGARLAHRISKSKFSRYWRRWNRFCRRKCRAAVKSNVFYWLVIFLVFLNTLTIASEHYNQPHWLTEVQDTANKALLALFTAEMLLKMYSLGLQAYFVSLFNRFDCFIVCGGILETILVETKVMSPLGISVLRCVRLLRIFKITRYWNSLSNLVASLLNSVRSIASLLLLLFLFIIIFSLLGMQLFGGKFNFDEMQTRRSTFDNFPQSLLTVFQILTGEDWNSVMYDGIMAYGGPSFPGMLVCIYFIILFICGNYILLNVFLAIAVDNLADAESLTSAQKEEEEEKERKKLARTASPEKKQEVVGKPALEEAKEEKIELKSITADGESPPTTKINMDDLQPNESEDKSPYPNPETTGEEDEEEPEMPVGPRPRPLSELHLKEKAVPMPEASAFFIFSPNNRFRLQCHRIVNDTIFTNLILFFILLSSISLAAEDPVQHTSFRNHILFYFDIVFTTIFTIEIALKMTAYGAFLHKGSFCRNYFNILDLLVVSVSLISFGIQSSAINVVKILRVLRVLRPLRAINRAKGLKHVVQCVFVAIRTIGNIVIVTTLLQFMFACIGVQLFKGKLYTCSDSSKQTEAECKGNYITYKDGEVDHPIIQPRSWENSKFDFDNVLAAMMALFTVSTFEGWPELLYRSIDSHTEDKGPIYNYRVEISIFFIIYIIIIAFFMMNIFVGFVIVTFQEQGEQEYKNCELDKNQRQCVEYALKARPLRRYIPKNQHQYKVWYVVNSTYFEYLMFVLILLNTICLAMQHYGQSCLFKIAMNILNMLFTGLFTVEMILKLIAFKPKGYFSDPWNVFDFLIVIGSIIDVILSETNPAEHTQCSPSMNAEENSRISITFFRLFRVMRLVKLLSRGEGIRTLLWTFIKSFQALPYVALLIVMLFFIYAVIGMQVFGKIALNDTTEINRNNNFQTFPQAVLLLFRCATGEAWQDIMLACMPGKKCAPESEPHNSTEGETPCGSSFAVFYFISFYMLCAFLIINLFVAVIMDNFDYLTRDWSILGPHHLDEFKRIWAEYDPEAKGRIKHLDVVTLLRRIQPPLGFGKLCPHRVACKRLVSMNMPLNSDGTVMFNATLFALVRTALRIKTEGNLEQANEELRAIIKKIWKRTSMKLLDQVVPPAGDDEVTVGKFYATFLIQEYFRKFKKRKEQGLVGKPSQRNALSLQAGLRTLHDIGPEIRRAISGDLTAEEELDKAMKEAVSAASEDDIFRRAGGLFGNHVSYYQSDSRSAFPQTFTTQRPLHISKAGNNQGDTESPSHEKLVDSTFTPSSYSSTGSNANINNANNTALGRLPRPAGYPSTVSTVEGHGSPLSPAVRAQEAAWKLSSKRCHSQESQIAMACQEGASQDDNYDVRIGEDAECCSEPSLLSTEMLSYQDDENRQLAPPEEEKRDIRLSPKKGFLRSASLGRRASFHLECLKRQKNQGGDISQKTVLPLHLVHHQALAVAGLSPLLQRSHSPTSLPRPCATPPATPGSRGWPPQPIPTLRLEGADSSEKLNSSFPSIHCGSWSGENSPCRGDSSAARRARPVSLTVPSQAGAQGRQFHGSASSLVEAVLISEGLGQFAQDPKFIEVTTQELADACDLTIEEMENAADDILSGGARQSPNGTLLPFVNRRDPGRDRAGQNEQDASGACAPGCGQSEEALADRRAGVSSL
T1 sequence (P13806 27-960 partner limits assumed, other chains not shown): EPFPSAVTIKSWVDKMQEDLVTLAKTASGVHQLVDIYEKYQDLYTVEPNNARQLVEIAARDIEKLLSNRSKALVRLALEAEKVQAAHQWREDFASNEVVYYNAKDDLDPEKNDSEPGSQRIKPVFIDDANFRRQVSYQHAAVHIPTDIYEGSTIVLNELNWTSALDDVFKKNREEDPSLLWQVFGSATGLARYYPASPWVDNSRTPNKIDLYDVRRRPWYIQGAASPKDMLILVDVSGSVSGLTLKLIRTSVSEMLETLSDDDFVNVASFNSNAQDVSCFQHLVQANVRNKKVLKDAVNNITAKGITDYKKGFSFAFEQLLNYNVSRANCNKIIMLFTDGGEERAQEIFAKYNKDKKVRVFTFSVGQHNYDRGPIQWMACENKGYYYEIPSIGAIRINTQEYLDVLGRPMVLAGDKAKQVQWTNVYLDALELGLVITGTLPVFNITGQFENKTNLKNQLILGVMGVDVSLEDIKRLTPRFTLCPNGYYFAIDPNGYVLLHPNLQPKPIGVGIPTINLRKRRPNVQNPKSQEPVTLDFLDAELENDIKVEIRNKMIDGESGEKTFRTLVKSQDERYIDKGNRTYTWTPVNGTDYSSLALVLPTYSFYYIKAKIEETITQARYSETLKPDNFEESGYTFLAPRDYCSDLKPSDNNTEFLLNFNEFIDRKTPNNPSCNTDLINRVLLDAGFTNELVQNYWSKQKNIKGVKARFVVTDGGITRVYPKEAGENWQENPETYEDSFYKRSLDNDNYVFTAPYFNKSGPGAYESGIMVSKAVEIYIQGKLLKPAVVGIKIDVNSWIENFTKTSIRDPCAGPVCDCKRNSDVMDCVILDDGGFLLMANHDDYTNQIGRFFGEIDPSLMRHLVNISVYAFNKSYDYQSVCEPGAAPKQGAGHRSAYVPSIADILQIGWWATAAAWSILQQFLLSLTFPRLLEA
T1 sequence (P13806 961-1106 partner limits assumed, other chains not shown): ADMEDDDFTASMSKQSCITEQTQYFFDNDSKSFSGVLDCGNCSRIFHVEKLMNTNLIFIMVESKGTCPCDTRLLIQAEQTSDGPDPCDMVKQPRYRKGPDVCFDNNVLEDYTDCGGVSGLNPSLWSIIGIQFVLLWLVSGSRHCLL

| Compound | IC50 |
| --- | --- |
| CN(CCOC(=O)C1=C(c2ccccc2)NC2=C(C1c1cccc(Cl)c1)S(=O)(=O)CCCC2)Cc1cccs1 (centres unmarked) [Compound 19, Thiepino[3,2-b]pyridine-3-carboxylic acid, 4-(3-chlorophenyl)-1,4,6,7,8,9-hexahydro-2-phenyl-, 2-[methyl(2-thienylmethyl)amino]ethyl ester, 5,5-dioxide] | 1290 nM |
| COC(=O)C1=C(c2ccccc2)NC2=C(C1c1cccc(Cl)c1)S(=O)(=O)CCCC2 (centres unmarked) [Compound 3, Thiepino[3,2-b]pyridine-3-carboxylic acid, 4-(3-chlorophenyl)-1,4,6,7,8,9-hexahydro-2-phenyl-, methyl ester, 5,5-dioxide] | 2000 nM |
| CN(CCOC(=O)C1=C(c2ccccc2)NC2=C(C1c1ccccc1Cl)S(=O)(=O)CCCC2)Cc1cccs1 (centres unmarked) [Compound 17, Thiepino[3,2-b]pyridine-3-carboxylic acid, 4-(2-chlorophenyl)-1,4,6,7,8,9-hexahydro-2-phenyl-, 2-[methyl(2-thienylmethyl)amino]ethyl ester, 5,5-dioxide] | 500 nM |
| CC1=C(C(=O)OCCN(C)Cc2cccs2)C(c2c(F)cccc2Cl)C2=C(CCCCS2(=O)=O)N1 (centres unmarked) [Compound 9, Thiepino[3,2-b]pyridine-3-carboxylic acid, 4-(2-chloro-6-fluorophenyl)-1,4,6,7,8,9-hexahydro-2-methyl-, 2-[methyl(2-thienylmethyl)amino]ethyl ester, 5,5-dioxide] | 29.5 nM |
| CN(CCOC(=O)C1=C(c2ccccc2)NC2=C(C1c1c(O)cccc1Cl)S(=O)(=O)CCCC2)Cc1ccccc1 (centres unmarked) [Compound 5, Thiepino[3,2-b]pyridine-3-carboxylic acid, 4-(2-chloro-6-hydroxyphenyl)-1,4,6,7,8,9-hexahydro-2-phenyl-, 2-[methyl(phenylmethyl)amino]ethyl ester, 5,5-dioxide] | 2000 nM |
| CN(CCOC(=O)C1=C(c2ccccc2)NC2=C(C1c1ccccc1Cl)S(=O)(=O)CCCC2)Cc1ccccc1 (centres unmarked) [Compound 6, Thiepino[3,2-b]pyridine-3-carboxylic acid, 4-(2-chlorophenyl)-1,4,6,7,8,9-hexahydro-2-phenyl-, 2-[methyl(phenylmethyl)amino]ethyl ester, 5,5-dioxide] | 312 nM |
| CC1=C(C(=O)OCCN(C)Cc2ccsc2)C(c2c(O)cccc2Cl)C2=C(CCCCS2(=O)=O)N1 (centres unmarked) [Compound 25, Thiepino[3,2-b]pyridine-3-carboxylic acid, 4-(2-chloro-6-hydroxyphenyl)-1,4,6,7,8,9-hexahydro-2-methyl-, 2-[methyl(3-thienylmethyl)amino]ethyl ester, 5,5-dioxide] | 815 nM |
| CCOC(=O)C1=C(c2ccccc2)NC2=C(C1c1c(F)c(F)c(F)c(F)c1F)S(=O)(=O)CCCC2 (centres unmarked) [Compound 10, Thiepino[3,2-b]pyridine-3-carboxylic acid, 1,4,6,7,8,9-hexahydro-4-(2,3,4,5,6-pentafluorophenyl)-2-phenyl-, ethyl ester, 5,5-dioxide] | 684 nM |
| CC1=C(C(=O)OCCN(C)Cc2cccs2)C(c2c(F)c(F)c(F)c(F)c2F)C2=C(CCCCS2(=O)=O)N1 (centres unmarked) [Compound 12, Thiepino[3,2-b]pyridine-3-carboxylic acid, 1,4,6,7,8,9-hexahydro-2-methyl-4-(2,3,4,5,6-pentafluorophenyl)-, 2-[methyl(2-thienylmethyl)amino]ethyl ester, 5,5-dioxide] | 5.9 nM |
| CCOC(=O)C1=C(c2cccnc2)NC2=C(C1c1cccc(C(F)(F)F)c1F)S(=O)(=O)CCCC2 (centres unmarked) [Compound 23, Thiepino[3,2-b]pyridine-3-carboxylic acid, 4-[2-fluoro-3-(trifluoromethyl)phenyl]-1,4,6,7,8,9-hexahydro-2-(3-pyridinyl)-, ethyl ester, 5,5-dioxide] | 2000 nM |
| CCOC(=O)C1=C(c2ccccc2)NC2=C(C1c1ccccc1Cl)S(=O)(=O)CCCC2 (centres unmarked) [Compound 8, Thiepino[3,2-b]pyridine-3-carboxylic acid, 4-(2-chlorophenyl)-1,4,6,7,8,9-hexahydro-2-phenyl-, ethyl ester, 5,5-dioxide] | 580 nM |
| CCOC(=O)C1=C(c2cccnc2)NC2=C(C1c1ccccc1Cl)S(=O)(=O)CCCC2 (centres unmarked) [Compound 21, Thiepino[3,2-b]pyridine-3-carboxylic acid, 4-(2-chlorophenyl)-1,4,6,7,8,9-hexahydro-2-(3-pyridinyl)-, ethyl ester, 5,5-dioxide] | 2000 nM |
| CC1=C(C(=O)OCCN(C)Cc2ccsc2)C(c2ccccc2Cl)C2=C(CCCCS2(=O)=O)N1 (centres unmarked) [Compound 24, Thiepino[3,2-b]pyridine-3-carboxylic acid, 4-(2-chlorophenyl)-1,4,6,7,8,9-hexahydro-2-methyl-, 2-[methyl(3-thienylmethyl)amino]ethyl ester, 5,5-dioxide] | 149 nM |
| CN(CCOC(=O)C1=C(c2ccccc2)NC2=C(C1c1cccc(Cl)c1)S(=O)(=O)CCCC2)Cc1ccccc1 (centres unmarked) [Compound 4, Thiepino[3,2-b]pyridine-3-carboxylic acid, 4-(3-chlorophenyl)-1,4,6,7,8,9-hexahydro-2-phenyl-, 2-[methyl(phenylmethyl)amino]ethyl ester, 5,5-dioxide] | 192 nM |
| CC1=C(C(=O)OCCN(C)Cc2cccs2)C(c2ccccc2Cl)C2=C(CCCCS2(=O)=O)N1 (centres unmarked) [Compound 14, Thiepino[3,2-b]pyridine-3-carboxylic acid, 4-(2-chlorophenyl)-1,4,6,7,8,9-hexahydro-2-methyl-, 2-[methyl(2-thienylmethyl)amino]ethyl ester, 5,5-dioxide] | 15 nM |

Further lines, results first:

| IC50 | Compound |
| --- | --- |
| 7.1 nM | CC1=C(C(=O)OCCN(C)Cc2cccs2)C(c2cccc([N+](=O)[O-])c2)C2=C(CCCCS2(=O)=O)N1 (centres unmarked) [Compound 13, Thiepino[3,2-b]pyridine-3-carboxylic acid, 1,4,6,7,8,9-hexahydro-2-methyl-4-(3-nitrophenyl)-, 2-[methyl(2-thienylmethyl)amino]ethyl ester, 5,5-dioxide] |
| 6950 nM | CCOC(=O)C1=C(c2ccccc2)NC2=C(C1c1cccc([N+](=O)[O-])c1)S(=O)(=O)CCCC2 (centres unmarked) [Compound 11, Thiepino[3,2-b]pyridine-3-carboxylic acid, 1,4,6,7,8,9-hexahydro-4-(3-nitrophenyl)-2-phenyl-, ethyl ester, 5,5-dioxide] |
| 51 nM | CC1=C(C(=O)OCCN(C)Cc2ccsc2)C(c2cccc([N+](=O)[O-])c2)C2=C(CCCCS2(=O)=O)N1 (centres unmarked) [Compound 26, Thiepino[3,2-b]pyridine-3-carboxylic acid, 1,4,6,7,8,9-hexahydro-2-methyl-4-(3-nitrophenyl)-, 2-[methyl(3-thienylmethyl)amino]ethyl ester, 5,5-dioxide] |
| 115 nM | CCOC(=O)C1=C(c2ccccc2)NC2=C(C1c1cccc(Cl)c1Cl)S(=O)(=O)CCCC2 (centres unmarked) [Compound 2, Thiepino[3,2-b]pyridine-3-carboxylic acid, 4-(2,3-dichlorophenyl)-1,4,6,7,8,9-hexahydro-2-phenyl-, ethyl ester, 5,5-dioxide] |
| 2000 nM | CCOC(=O)C1=C(c2cccnc2)NC2=C(C1c1cccc(Cl)c1)S(=O)(=O)CCCC2 (centres unmarked) [Compound 22, Thiepino[3,2-b]pyridine-3-carboxylic acid, 4-(3-chlorophenyl)-1,4,6,7,8,9-hexahydro-2-(3-pyridinyl)-, ethyl ester, 5,5-dioxide] |
| 2300 nM | CCOC(=O)C1=C(c2cccs2)NC2=C(C1c1cccc(Cl)c1)S(=O)(=O)CCCC2 (centres unmarked) [Compound 16, Thiepino[3,2-b]pyridine-3-carboxylic acid, 4-(3-chlorophenyl)-1,4,6,7,8,9-hexahydro-2-(2-thienyl)-, ethyl ester, 5,5-dioxide] |
| 2000 nM | CCOC(=O)C1=C(c2ccccc2)NC2=C(C1c1c(O)cccc1Cl)S(=O)(=O)CCCC2 (centres unmarked) [Compound 7, Thiepino[3,2-b]pyridine-3-carboxylic acid, 4-(2-chloro-6-hydroxyphenyl)-1,4,6,7,8,9-hexahydro-2-phenyl-, ethyl ester, 5,5-dioxide] |
| 6540 nM | CCOC(=O)C1=C(c2cccs2)NC2=C(C1c1cccc([N+](=O)[O-])c1)S(=O)(=O)CCCC2 (centres unmarked) [Compound 20, Thiepino[3,2-b]pyridine-3-carboxylic acid, 1,4,6,7,8,9-hexahydro-4-(3-nitrophenyl)-2-(2-thienyl)-, ethyl ester, 5,5-dioxide] |
| 26000 nM | CN(CCOC(=O)C1=C(c2ccccc2)NC2=C(C1c1cccc([N+](=O)[O-])c1)S(=O)(=O)CCCC2)Cc1cccs1 (centres unmarked) [Compound 18, Thiepino[3,2-b]pyridine-3-carboxylic acid, 1,4,6,7,8,9-hexahydro-4-(3-nitrophenyl)-2-phenyl-, 2-[methyl(2-thienylmethyl)amino]ethyl ester, 5,5-dioxide] |
| 2500 nM | CCOC(=O)C1=C(c2cccs2)NC2=C(C1c1ccccc1Cl)S(=O)(=O)CCCC2 (centres unmarked) [Compound 15, Thiepino[3,2-b]pyridine-3-carboxylic acid, 4-(2-chlorophenyl)-1,4,6,7,8,9-hexahydro-2-(2-thienyl)-, ethyl ester, 5,5-dioxide] |
| 2000 nM | CCOC(=O)C1=C(c2ccccc2)NC2=C(C1c1ccc(Cl)cc1)S(=O)(=O)CCCC2 (centres unmarked) [Compound 1, Thiepino[3,2-b]pyridine-3-carboxylic acid, 4-(4-chlorophenyl)-1,4,6,7,8,9-hexahydro-2-phenyl-, ethyl ester, 5,5-dioxide] |
